These results are taken from patent publication US20040086901A1, “Database for analyzing gene function and method of analyzing gene function by dspa” (priority 2000, published 2004).

Format in all cases: cell-based, mouse
Assay [1] deals with NIH3T3 cells overexpressing caspase-2. Nature of the assay: MTT cell viability, caspase-2 overexpressing cells vs parental line. The settings on record: caspase-2 high-expressing cells / parental cell line, 3 to 4 days. The method in brief: (§1)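 Stable NIH3T3 transfectants (cDNA in pRc-CMV-type vector, G-418-selected, high expressers picked by Western blot) and parental cells were seeded at 1×10^5 cells/ml into twofold serial drug dilutions and grown 3–4 days. MTT formazan was read at 574/655 nm, and log ratios of IC40 values were derived.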

Assay [2] concerns NIH3T3 cells overexpressing Regucalcin. Nature of the assay: MTT cell viability, Regucalcin overexpressing cells vs parental line. The conditions noted are these: Regucalcin high-expressing cells / parental cell line, 3 to 4 days. The method in brief:
as §1

For assay [3], the system named is NIH3T3 cells overexpressing erbB2. Put plainly: MTT cell viability, erbB2 overexpressing cells vs parental line. The conditions noted are these: erbB2 high-expressing cells / parental cell line, 3 to 4 days. In a few lines: as §1
Assay [4] relates to NIH3T3 cells overexpressing STAT1. Put plainly: MTT cell viability, STAT1 overexpressing cells vs parental line. The conditions noted are these: STAT1 high-expressing cells / parental cell line, 3 to 4 days. The method in brief: (§2)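 Each full-length cDNA is expressed from a CMV vector in NIH3T3 cells, and a high-expressing clone is compared with the parental line. Viability is measured by MTT after 3–4 days with graded drug concentrations, and the log IC40 ratio is reported.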

In assay [5] the test system is NIH3T3 cells, TPA (PKC downreg). Put plainly: MTT cell viability, TPA (PKC downreg) cells vs parental line. The settings on record: 3 to 4 days.
The test system of assay [6] is NIH3T3 cells overexpressing CBP8. Nature of the assay: MTT cell viability, CBP8 overexpressing cells vs parental line. The settings on record: CBP8 high-expressing cells / parental cell line, 3 to 4 days. The method in brief:
as §1

Assay [7] has as its system NIH3T3 cells overexpressing HNF4. Nature of the assay: MTT cell viability, HNF4 overexpressing cells vs parental line. The settings on record: HNF4 high-expressing cells / parental cell line, 3 to 4 days. In a few lines:
as §2

Assay [8] deals with NIH3T3 cells overexpressing cAMP-PK-CS. Nature of the assay: MTT cell viability, cAMP-PK-CS overexpressing cells vs parental line. The conditions noted are these: cAMP-PK-CS high-expressing cells / parental cell line, 3 to 4 days. In a few lines:
as §2

Assay [9] has as its system NIH3T3 cells overexpressing caspase-3. Nature of the assay: MTT cell viability, caspase-3 overexpressing cells vs parental line. The settings on record: caspase-3 high-expressing cells / parental cell line, 3 to 4 days. In a few lines:
as §2

Assay [10] concerns NIH3T3 cells overexpressing N-ras. Nature of the assay: MTT cell viability, N-ras overexpressing cells vs parental line. The conditions noted are these: N-ras high-expressing cells / parental cell line, 3 to 4 days. The method in brief: as §1
Assay [11] relates to NIH3T3 cells overexpressing cystatin E. Nature of the assay: MTT cell viability, cystatin E overexpressing cells vs parental line. The conditions noted are these: cystatin E high-expressing cells / parental cell line, 3 to 4 days. In a few lines: as §1
Assay [12] concerns NIH3T3 cells overexpressing HNF3b. Put plainly: MTT cell viability, HNF3b overexpressing cells vs parental line. The settings on record: HNF3b high-expressing cells / parental cell line, 3 to 4 days. In a few lines: as §2
The test system of assay [13] is NIH3T3 cells overexpressing calpastatin. Put plainly: MTT cell viability, calpastatin overexpressing cells vs parental line. The conditions noted are these: calpastatin high-expressing cells / parental cell line, 3 to 4 days. In a few lines:
as §1

Assay [14] relates to NIH3T3 cells overexpressing CaMKIIa. Put plainly: MTT cell viability, CaMKIIa overexpressing cells vs parental line. The conditions noted are these: CaMKIIa high-expressing cells / parental cell line, 3 to 4 days. The method in brief:
as §2

For assay [15], the system named is NIH3T3 cells overexpressing p16/INK4A. Put plainly: MTT cell viability, p16/INK4A overexpressing cells vs parental line. The settings on record: p16/INK4A high-expressing cells / parental cell line, 3 to 4 days. The method in brief:
as §1

Assay [16] deals with NIH3T3 cells overexpressing Ki-ras. Put plainly: MTT cell viability, Ki-ras overexpressing cells vs parental line. The conditions noted are these: Ki-ras high-expressing cells / parental cell line, 3 to 4 days. In a few lines:
as §1

The test system of assay [17] is NIH3T3 cells overexpressing Bax. Put plainly: MTT cell viability, Bax overexpressing cells vs parental line. The conditions noted are these: 3 to 4 days. The method in brief: as §2
In assay [18] the test system is NIH3T3 cells overexpressing caspase-1. Nature of the assay: MTT cell viability, caspase-1 overexpressing cells vs parental line. The settings on record: caspase-1 high-expressing cells / parental cell line, 3 to 4 days. In a few lines: as §2
Assay [19] relates to NIH3T3 cells overexpressing RhoA. Nature of the assay: MTT cell viability, RhoA overexpressing cells vs parental line. The conditions noted are these: RhoA high-expressing cells / parental cell line, 3 to 4 days. The method in brief:
as §1

The test system of assay [20] is NIH3T3 cells overexpressing p33/ING1. Nature of the assay: MTT cell viability, p33/ING1 overexpressing cells vs parental line. The conditions noted are these: p33/ING1 high-expressing cells / parental cell line, 3 to 4 days. The method in brief:
as §1

Where [21] appears, read: Bax (first of two Bax lines) high-expressing cells / parental cell line.
Where [22] appears, read: Bax (second of two Bax lines) high-expressing cells / parental cell line.

For `COC(=O)[C@@]1(O)C[C@H]2O[C@]1(C)n1c3ccccc3c3c4c(c5c6ccccc6n2c5c31)C(=O)NC4` [K252a], the “logarithmic value of ratio of IC40 values” is 0.37 in assay [1]; −0.34 in assay [2]; 0.15 in assay [3]; 0.15 in [4]; −0.13 in assay [5]; 0.28 in assay [6]. Further, the “logarithmic value of ratio of IC40 values” is −0.22 in assay [7]; −0.04 in assay [8]; 0.15 in assay [9]; −0.16 in assay [10]; −0.19 in assay [11]; −0.21 in [12]. For the same compound, the “logarithmic value of ratio of IC40 values” is 0.1 in assay [13]; 0.04 in assay [14]; −0.22 in [15]; 0.15 in assay [16]; −0.11 in assay [17] (setting [21]); 0.60 in assay [17] (setting [22]). In addition, the entries for the “logarithmic value of ratio of IC40 values” in [18], in [19] and in assay [20] were 0.04, 0.10 and 0.28, respectively.
`COC[C@H]1OC(=O)c2coc3c2[C@@]1(C)C1=C(C3=O)[C@@H]2CCC(=O)[C@@]2(C)C[C@H]1OC(C)=O` [Wortmannin, wortmannin]: the “logarithmic value of ratio of IC40 values” in [1] was 0.52; in [2] it was −0.28; in assay [3], 0.16; in assay [4], 0.00; in assay [5], 0.00; in assay [6] it was 0.14. The “logarithmic value of ratio of IC40 values” is reported as 0.14 in assay [7]; −0.07 in assay [8]; 0.45 in [9]; 0.14 in [10]; 0.00 in [11]; 0.24 in [12]. Moreover, the “logarithmic value of ratio of IC40 values” in assay [13] is listed as −0.14; in assay [14] it was −0.15; in assay [15], 0.30; in [16] it was 0.34; in [17] (setting [21]), 0.14; in assay [17] (setting [22]), 0.10. Moreover, the “logarithmic value of ratio of IC40 values” worked out at 0.20 in assay [18], 0.24 in assay [19] and 0.00 in assay [20].
